According to patent US20080280833A1, “Therapeutic Peptides Derived from Urokinase Plasminogen Activator Receptor” (priority 2005, published 2008):

Columns and labels:
[1] = test system: rat smooth muscle cells (RSMC); assay: Chemotaxis assay, rat smooth muscle cells; assay type: cell-based; details: for inhibition of D2A-induced RSMC migration: attractant D2A; for inhibition of VN-induced RSMC migration: attractant VN
Protocol: (§1) Chemotaxis assay was performed as described (Degryse et al., 1999, 2001a, 2001b) with modified Boyden chambers. Filters (5 μm pore size, Neuro Probe, Gaithersburg, Md.) were treated with collagen I (100 μg/ml) and fibronectin (10 μg/ml, Roche).≈40-50,000 cells in serum-free DMEM were added to the upper well and the chemoattractants tested added to the lower well. When present, antibodies, or inhibitors were added in both wells. After overnight migration at 37° C., cells remaining on the upper surface of filters were scraped off and filters were fixed in methanol and stained in a solution of 10% (w/v) crystal violet in 20% (v/v) methanol. The experiments were performed at least twice in triplicate and the results, expressed as fold over control, are the mean ±SD of the number of cells counted in ten high power fields per filter. Random cell migration, i.e. migration in the absence of chemoattractant, was given the arbitrary value of 100%.

KG-1 cells = assay: Chemotaxis assay of non adherent cells, Boyden micro-chamber; assay type: cell-based, human; details: for chemotaxis of KG-1 cells: peptide as chemoattractant, 1 hour at 37° C.
Protocol: Chemotaxis assay of non adherent cells was performed as described (Degryse et al., 2001; FEBS lett. 505: 249-254) using modified Boyden micro-chamber with the exception that the filter was not treated. 50,000 cells were added in the top well in serum-free RPMI medium and allowed to migrate for 1 hour at 37° C. The molecules to be tested as chemoattractant were diluted in serum-free RPMI medium and added in the lower well of the Boyden chamber. Experiments were performed in triplicate. Results are the mean ±SD of the number of cells counted in five high power fields. Migration in the absence of chemoattractant is referred to as 100%.

[2] = test system: human HT1080 fibrosarcoma cells; assay: Matrigel invasion assay; assay type: cell-based; details: for concentration of peak stimulation of Matrigel invasiveness: HT1080, dose-dependent; for stimulation of Matrigel invasiveness of HT1080 cells: substance alone, 24 hours at 37° C.; for inhibition of EGF-dependent invasion / inhibition of insulin-dependent invasion: HT1080, 100 pM; for inhibition of VN-induced invasiveness / inhibition of uPA-induced invasiveness: HT1080, at about the same concentration (around 1 pM); for inhibition of FN-induced invasion: HT1080, at the same concentration
[3] = test system: Rat Smooth Muscle Cells and HT1080 Human Fibrosarcoma Cells; assay: Boyden chamber assays, pleiotropic inhibition of chemotaxis; assay type: cell-based
Source text: In Boyden chamber assays, D2A-Ala and GAAG inhibit not only VN-dependent and uPA-dependent chemotaxis (as reported above), but also EGF— and UTP-dependent chemotaxis. The effect is dose-dependent. Notice that the EGF-dependent and the UTP-dependent chemotaxis work through receptors (EGF-receptor and P2Y2 receptor, respectively), that are different among themselves and are different from those employed by uPA (uPAR) and VN (αvβ3). We conclude that these two inhibitors are general inhibitors of chemotaxis.

LB6-D1HD3 cells = assay: Chemotaxis assay, LB6-D1HD3 cells (uPAR lacking domain 2); assay type: cell-based, mouse
Protocol: as §1

RSMC = assay: Immunofluorescence microscopy, actin cytoskeleton and cell morphology; assay type: cell-based, rat; details: 30 minutes at 37° C., peptide 1 pM or VN 1 μg/ml
Protocol: (§2) As previously described (Degryse et al., 1999; 2004) 15,000-25,000 cells (20-40% confluence), were seeded on glass coverslips in 2 cm^2 well, cultured for 24 hours in DMEM plus 10% FCS, washed with PBS and cultured for another 24 hours without FCS. After stimulation, RSMC were fixed for 20 min at RT with 3% paraformaldehyde, 2% sucrose in PBS pH 7.5, washed 3 times with PBS-BSA 0.2%, permeabilized with 20 mM hepes pH 7.4, 300 mM saccharose, 50 mM NaCl, 3 mM MgCl2, 0.5% (v/v) Triton X-100 for 3 min at 4° C., and washed 3 times with PBS-BSA 0.2%. RSMC were incubated in PBS-BSA 2% for 15 min at 37° C., then with anti-Stat1 primary antibodies for 30 min at 37° C., washed 3 times with PBS-BSA 0.2%, and further incubated with PBS-BSA 2% for 15 min at 37° C. Cells were stained with the secondary TRITC-antibody and with FITC-phalloidin for visualization of filamentous actin, for 30 min at 37° C. DAPI (4′,6-diamidino-2-phenylindole, Roche) was used to label the nucleus. Finally, after 3 washes with PBS-BSA 0.2%, one with distilled water, coverslips were mounted with 20% (w/v) Mowiol. Fluorescence Photographs were taken with a Zeiss Axiophot microscope

HEK-293-uPAR cells = assay: Chemotaxis assay, HEK-293-uPAR cells; assay type: cell-based, human; details: HEK-293-uPAR; for cell migration in the presence of VN: VN 1 μg/ml + peptide 1 pM; for cell migration: peptide alone 1 pM
Protocol: as §1

uPAR-α5β1 complexes = molecular target: T1, uPAR-α5β1 complexes (Homo sapiens, UniProt P05556+P08648); assay: Pull-down assay, 125I-suPAR with purified α5β1 integrin; assay type: binding; details: in the presence of uPA
T1 construct: purchased Chemicon (integrins); American Diagnostica (uPA)
Protocol: (§3) Soluble uPAR (suPAR) was radioiodinated (as for VN, see above) at a specific activity of 1.5×10^5 cpm/ng. A mix composed of 2 μg of either purified αvβ3 or α5β1 integrin, and […] of ^125I-suPAR was incubated for 4 hours at 4° C. in the absence (control) or in the presence of 4 μg of uPA with or without 5 μg of either D2A or D2A-Ala peptide in binding buffer, (RPMI plus 0.02% BSA, 10 mM HEPES pH 7.4, total volume 300 μl). Complexes were immunoprecipitated with 3 μg of anti-αvβ3 (LM609) or anti-α5β1 monoclonal antibody, and 60 μl of protein G-agarose beads (Amersham Biosciences), Beads were washed three times in binding buffer, extracted in reducing sample buffer, and proteins were fractionated by SDS-PAGE. Gels were analyzed by autoradiography and densitometry. Results are presented as percentage of relative density units normalized to uPA alone.

Stat1 = assay: Immunofluorescence microscopy, Stat1 distribution; assay type: cell-based, rat; details: RSMC; for Stat1 activation and translocation into the nucleus: 30 minutes at 37° C., peptide 1 pM or VN 1 μg/ml
Protocol: as §2
To quantify the activation of Stat1, random pictures were taken and nuclei positively stained for Stat1 were counted and expressed in percent.

HEK-293 cells = assay: Chemotaxis assay, HEK-293 cells; assay type: cell-based, human; details: for cell migration in the presence of VN: HEK-293, VN 1 μg/ml + peptide 1 pM; for cell migration: HEK-293, peptide alone 1 pM
Protocol: as §1

uPAR-αvβ3 complexes = molecular target: T2, uPAR-αvβ3 complexes (Homo sapiens, UniProt P05106+P06756); assay: Pull-down assay, 125I-suPAR with purified αvβ3 integrin; assay type: binding
T2 construct: purchased Chemicon (integrins); American Diagnostica (uPA)
Protocol: as §3

[4] = test system: human smooth muscle cells from the coronary artery (CASMC); assay: Chemotaxis assay, human coronary artery smooth muscle cells; assay type: cell-based
Protocol: as §1

[5] = test system: human smooth muscle cells from the aorta (AoSMC); assay: Chemotaxis assay, human aortic smooth muscle cells; assay type: cell-based
Protocol: as §1

T2 sequence (P06756 31-889 limits assumed): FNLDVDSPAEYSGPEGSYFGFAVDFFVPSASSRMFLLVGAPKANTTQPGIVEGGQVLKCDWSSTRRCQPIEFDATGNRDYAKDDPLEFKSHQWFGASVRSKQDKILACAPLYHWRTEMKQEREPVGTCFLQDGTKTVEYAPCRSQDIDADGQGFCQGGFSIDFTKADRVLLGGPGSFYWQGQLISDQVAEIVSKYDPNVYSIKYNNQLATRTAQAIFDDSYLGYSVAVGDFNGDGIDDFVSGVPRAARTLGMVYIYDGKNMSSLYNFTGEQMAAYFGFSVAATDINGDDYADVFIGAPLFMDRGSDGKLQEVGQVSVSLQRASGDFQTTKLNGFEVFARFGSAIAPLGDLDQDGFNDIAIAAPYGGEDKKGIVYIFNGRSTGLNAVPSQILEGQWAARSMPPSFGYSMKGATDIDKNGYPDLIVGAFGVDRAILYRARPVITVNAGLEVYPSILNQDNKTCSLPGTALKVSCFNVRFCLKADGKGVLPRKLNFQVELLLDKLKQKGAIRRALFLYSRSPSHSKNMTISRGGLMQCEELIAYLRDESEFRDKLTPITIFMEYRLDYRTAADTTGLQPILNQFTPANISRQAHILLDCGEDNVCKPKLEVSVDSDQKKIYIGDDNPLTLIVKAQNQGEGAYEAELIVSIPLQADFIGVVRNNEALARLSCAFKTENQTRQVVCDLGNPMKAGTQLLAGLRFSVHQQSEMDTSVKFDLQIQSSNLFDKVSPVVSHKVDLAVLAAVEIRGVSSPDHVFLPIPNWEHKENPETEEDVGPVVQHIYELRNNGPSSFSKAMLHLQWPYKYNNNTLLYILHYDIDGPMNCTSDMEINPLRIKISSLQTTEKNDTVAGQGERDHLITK
T2 sequence (P06756 891-1048 limits assumed): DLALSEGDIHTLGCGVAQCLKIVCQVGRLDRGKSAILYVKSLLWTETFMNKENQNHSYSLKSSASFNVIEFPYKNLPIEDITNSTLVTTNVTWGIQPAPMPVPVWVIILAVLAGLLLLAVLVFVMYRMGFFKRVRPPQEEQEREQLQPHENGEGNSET
T2 sequence (P05106 27-788): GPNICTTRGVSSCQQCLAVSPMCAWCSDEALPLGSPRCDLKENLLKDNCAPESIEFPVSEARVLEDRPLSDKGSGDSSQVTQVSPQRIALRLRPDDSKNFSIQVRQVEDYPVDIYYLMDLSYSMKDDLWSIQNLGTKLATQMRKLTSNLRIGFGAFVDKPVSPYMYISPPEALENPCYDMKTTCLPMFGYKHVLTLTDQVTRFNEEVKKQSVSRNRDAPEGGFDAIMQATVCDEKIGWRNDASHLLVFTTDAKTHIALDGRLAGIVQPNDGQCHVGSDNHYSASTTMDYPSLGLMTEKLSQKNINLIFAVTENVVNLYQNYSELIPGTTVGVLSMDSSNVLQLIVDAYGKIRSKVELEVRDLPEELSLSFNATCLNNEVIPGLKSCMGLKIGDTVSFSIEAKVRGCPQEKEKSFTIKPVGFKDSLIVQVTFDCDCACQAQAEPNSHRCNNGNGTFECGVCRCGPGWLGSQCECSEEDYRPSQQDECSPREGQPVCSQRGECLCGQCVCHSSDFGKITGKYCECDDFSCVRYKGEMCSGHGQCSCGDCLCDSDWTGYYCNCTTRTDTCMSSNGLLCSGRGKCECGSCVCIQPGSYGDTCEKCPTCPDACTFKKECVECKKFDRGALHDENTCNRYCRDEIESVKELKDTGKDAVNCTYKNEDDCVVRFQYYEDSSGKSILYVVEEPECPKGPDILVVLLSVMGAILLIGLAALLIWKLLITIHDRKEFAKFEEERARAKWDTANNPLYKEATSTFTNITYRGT
T1 sequence (P08648 42-894 limits assumed): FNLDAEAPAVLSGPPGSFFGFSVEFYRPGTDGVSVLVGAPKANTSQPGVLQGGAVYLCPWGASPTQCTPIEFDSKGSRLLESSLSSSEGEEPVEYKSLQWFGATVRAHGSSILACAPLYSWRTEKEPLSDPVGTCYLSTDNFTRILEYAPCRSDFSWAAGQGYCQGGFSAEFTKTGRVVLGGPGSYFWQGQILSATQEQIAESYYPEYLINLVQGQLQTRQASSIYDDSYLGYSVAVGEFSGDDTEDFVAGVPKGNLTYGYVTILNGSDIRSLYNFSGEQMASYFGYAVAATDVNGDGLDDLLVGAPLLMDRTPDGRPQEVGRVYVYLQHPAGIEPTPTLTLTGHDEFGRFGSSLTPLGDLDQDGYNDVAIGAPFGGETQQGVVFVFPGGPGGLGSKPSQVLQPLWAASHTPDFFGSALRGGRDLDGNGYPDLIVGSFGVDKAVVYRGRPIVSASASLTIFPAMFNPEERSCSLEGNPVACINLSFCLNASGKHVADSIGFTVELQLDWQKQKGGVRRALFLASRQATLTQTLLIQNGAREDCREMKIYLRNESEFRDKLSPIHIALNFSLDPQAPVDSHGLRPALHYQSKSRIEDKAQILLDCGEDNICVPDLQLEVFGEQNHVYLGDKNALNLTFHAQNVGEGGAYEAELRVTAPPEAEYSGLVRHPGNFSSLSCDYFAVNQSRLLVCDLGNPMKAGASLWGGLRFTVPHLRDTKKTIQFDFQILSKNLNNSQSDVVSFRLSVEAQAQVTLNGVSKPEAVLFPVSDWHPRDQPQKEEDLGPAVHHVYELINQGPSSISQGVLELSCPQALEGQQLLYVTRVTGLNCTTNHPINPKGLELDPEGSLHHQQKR
T1 sequence (P08648 895-1049 limits assumed): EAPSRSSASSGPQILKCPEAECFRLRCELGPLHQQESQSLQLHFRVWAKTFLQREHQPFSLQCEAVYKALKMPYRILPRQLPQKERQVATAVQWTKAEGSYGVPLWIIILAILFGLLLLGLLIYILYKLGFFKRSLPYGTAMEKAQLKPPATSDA
T1 sequence (P05556 21-798): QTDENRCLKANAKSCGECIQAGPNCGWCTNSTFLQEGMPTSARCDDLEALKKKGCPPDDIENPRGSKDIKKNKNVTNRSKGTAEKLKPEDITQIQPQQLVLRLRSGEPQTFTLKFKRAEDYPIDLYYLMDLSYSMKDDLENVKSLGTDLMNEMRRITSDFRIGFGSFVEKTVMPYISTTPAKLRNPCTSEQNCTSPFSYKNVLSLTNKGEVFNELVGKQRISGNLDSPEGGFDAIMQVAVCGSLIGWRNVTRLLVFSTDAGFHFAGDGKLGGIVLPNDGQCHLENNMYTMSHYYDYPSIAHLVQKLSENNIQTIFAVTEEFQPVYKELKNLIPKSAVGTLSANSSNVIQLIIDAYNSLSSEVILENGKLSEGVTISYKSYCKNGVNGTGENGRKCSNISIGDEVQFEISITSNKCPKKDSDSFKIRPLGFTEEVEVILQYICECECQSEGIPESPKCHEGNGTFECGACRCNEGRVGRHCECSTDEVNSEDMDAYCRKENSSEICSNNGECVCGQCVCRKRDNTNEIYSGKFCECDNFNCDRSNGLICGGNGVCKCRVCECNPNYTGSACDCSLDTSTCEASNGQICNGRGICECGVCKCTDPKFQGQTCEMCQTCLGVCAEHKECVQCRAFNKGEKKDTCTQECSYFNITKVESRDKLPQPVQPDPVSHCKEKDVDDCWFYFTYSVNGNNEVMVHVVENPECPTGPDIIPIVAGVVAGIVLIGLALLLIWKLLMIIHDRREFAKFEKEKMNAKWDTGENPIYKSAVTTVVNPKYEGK

Which “inhibition of D2A-induced RSMC migration” value ([1]; RSMC) does the source give for `COc1cccc(-c2cc(=O)c3ccccc3o2)c1N` [PD98059, reference compound] here?
Its value is “Neither VN- nor D2A-induced cell migration were blocked”.

And the “inhibition of VN-induced RSMC migration” value ([1]; RSMC)?
The value was “Neither VN- nor D2A-induced cell migration were blocked”.

What does the source list for RDDKPRGEEGEQI [D2B]?
chemotaxis of KG-1 cells (KG-1 cells): also promotes the migration; stimulation of RSMC migration (chemotactic activity) ([1]; RSMC): equally active in stimulating migration

What does the source list for GEEG?
concentration of peak stimulation of Matrigel invasiveness [2]: around 1 pM; stimulation of Matrigel invasiveness of HT1080 cells [2]: stimulate

How did the “inhibition of vitronectin (VN)-induced chemotaxis of KG-1 cells” value (KG-1 cells) turn out when “GAAG (Amino acid sequence motif) [shorter version of D2A-Ala]” was run?
The value was “inhibited”.

What about the “inhibition of VN-dependent chemotaxis” value [3] of the same compound?
The value was “inhibit”.

And the “inhibition of uPA-dependent chemotaxis” value [3]?
The value was “inhibit”.

What about the “inhibition of EGF-dependent chemotaxis” value [3] of the same compound?
The value was “inhibit”.

And the “inhibition of UTP-dependent chemotaxis” value [3]?
Its value is “inhibit”.

What about the “inhibition of EGF-dependent invasion” value [2] of the same compound?
Its value is “inhibit”.

What about the “inhibition of insulin-dependent invasion” value [2] of the same compound?
The value was “inhibit”.

What about the “inhibition of VN-induced invasiveness” value [2] of the same compound?
The value was “inhibit”.

What about the “inhibition of uPA-induced invasiveness” value [2] of the same compound?
The value was “inhibit”.

What about the “inhibition of FN-induced invasion” value [2] of the same compound?
Its value is “inhibit”.

What about the “stimulation of Matrigel invasiveness of HT1080 cells” value (“stimulation … of HT1080 cells” below) [2] of the same compound?
Its value is “have no effects”.

For `N#C/C(=C/c1ccc(O)c(O)c1)C(=O)NCc1ccccc1` [AG-490, reference compound], which “inhibition of D2A-induced RSMC migration” value ([1]; RSMC) is on record?
The value was “inhibited”.

And the “inhibition of VN-induced RSMC migration” value ([1]; RSMC)?
The value was “inhibited”.

Which “chemotaxis of KG-1 cells” value (KG-1 cells) does the source give for IQEGEEGRPKDDR [D2A] here?
Its value is “stimulated migration”.

What about the “maximal increase of migration” value (LB6-D1HD3 cells; LB6-D1HD3 cells, at 10 pM, peptide per se) of the same compound?
Its value is 2 fold.

What about the “effect on response to VN of non-responsive LB6-D1HD3 cells” value (LB6-D1HD3 cells; with VN 1 μg/ml) of the same compound?
Its value is “restored the response to VN”.

What about the “concentration of peak stimulation of Matrigel invasiveness” value [2] of the same compound?
The value was “around 1 pM”.

What about the “stimulation … of HT1080 cells” value [2] of the same compound?
The value was “stimulate”.

And the “cell morphology and actin cytoskeleton organization” value (RSMC)?
The value was “a complete change of morphology and cytoskeleton organization occurred”.

And the “cell migration in the presence of VN” value (HEK-293-uPAR cells)?
The value was 400.88 ± 17.41 % of control.

What about the cell migration (HEK-293-uPAR cells) of the same compound?
Its cell migration is 325.48 ± 14.42 % of control.

And the “stimulation of RSMC migration (chemotactic activity)” value ([1]; RSMC)?
The value was “equally active in stimulating migration”.

What about the “additivity of chemotactic effects with VN” value ([1]; RSMC, D2A 1 pM combined with VN 1 μg/ml) of the same compound?
Its value is “did not further increase cell migration”.

What about the “effect on uPA-induced co-immunoprecipitation of suPAR and α5β1” value (uPAR-α5β1 complexes) of the same compound?
The value was “can also prevent”.

What about the “Stat1 activation and translocation into the nucleus” value (Stat1) of the same compound?
Its value is “induced its translocation into the nucleus”.

And the “cell migration in the presence of VN” value (HEK-293 cells)?
The value was 190.23 ± 35.24 % of control.

And the cell migration (HEK-293 cells)?
Its cell migration is 106.98 ± 11.78 % of control.

And the “reduction of coimmunoprecipitated suPAR compared to uPA alone” value (uPAR-αvβ3 complexes; uPA plus peptide, αvβ3)?
Its value is “approximately 50%”.

With “IQEGAAGRPKDDR [D2A-Ala, D2A with two glutamic acids changed into two alanines]” as the compound, how does the “inhibition of vitronectin (VN)-induced chemotaxis of KG-1 cells” value (KG-1 cells) read?
Its value is “inhibited”.

What about the “inhibition of VN-dependent chemotaxis” value [3] of the same compound?
The value was “inhibit”.

And the “inhibition of uPA-dependent chemotaxis” value [3]?
Its value is “inhibit”.

What about the “inhibition of EGF-dependent chemotaxis” value [3] of the same compound?
Its value is “inhibit”.

And the “inhibition of UTP-dependent chemotaxis” value [3]?
Its value is “inhibit”.

What about the “inhibition of EGF-dependent invasion” value [2] of the same compound?
Its value is “inhibit”.

What about the “inhibition of insulin-dependent invasion” value [2] of the same compound?
Its value is “inhibit”.

And the “inhibition of VN-induced invasiveness” value [2]?
The value was “inhibit”.

And the “inhibition of uPA-induced invasiveness” value [2]?
Its value is “inhibit”.

What about the “inhibition of FN-induced invasion” value [2] of the same compound?
Its value is “inhibit”.

And the “stimulation … of HT1080 cells” value [2]?
Its value is “have no effects”.

And the “inhibition of VN-induced migration” value [4]?
The value was “totally inhibited”.

What about the “cell morphology and actin cytoskeleton organization” value (RSMC) of the same compound?
Its value is “did not promote the change of morphology and reorganization of actin cytoskeleton”.

And the “cell migration in the presence of VN” value (HEK-293-uPAR cells)?
The value was 108.18 ± 13.90 % of control.

And the cell migration (HEK-293-uPAR cells)?
Its cell migration is 108.72 ± 17.37 % of control.

And the “inhibition of FN-induced migration” value ([1]; RSMC)?
The value was “inhibited”.

What about the “inhibition of LN-induced migration” value ([1]; RSMC) of the same compound?
The value was “inhibited”.

What about the “stimulation of RSMC migration (chemotactic activity)” value ([1]; RSMC) of the same compound?
The value was “failed to stimulate cell migration”.

And the “inhibition of VN-induced RSMC migration” value ([1]; RSMC)?
The value was “completely abrogated”.

What about the “concentration at which an effect on VN-induced cell migration is already visible” value ([1]; VN-stimulated RSMC) of the same compound?
The value was 10 fM.

What about the “concentration giving complete inhibition of VN-induced cell migration” value ([1]; VN-stimulated RSMC) of the same compound?
Its value is 1 pM.

What about the “Stat1 activation and translocation into the nucleus” value (Stat1) of the same compound?
The value was “failed to activate Stat1”.

And the “inhibition of VN-induced translocation of Stat1” value (Stat1; peptide 1 pM with VN 1 μg/ml)?
Its value is “inhibited”.

What about the “cell migration in the presence of VN” value (HEK-293 cells) of the same compound?
The value was 94.50 ± 19.58 % of control.

What about the cell migration (HEK-293 cells) of the same compound?
The cell migration was 110.19 ± 26.63 % of control.

What about the “inhibition of VN-induced migration” value [5] of the same compound?
The value was “totally inhibited”.

What about the “effect on uPAR-αvβ3 co-immunoprecipitation” value (uPAR-αvβ3 complexes; in the presence of uPA) of the same compound?
Its value is “prevented”.
